Measurements taken from ChEMBL document CHEMBL5236587, “Discovery of oxazoline enhancers of cellular progranulin release” (Bioorg Med Chem Lett, 2023).
pEC50, pIC50: −log10 of the molar value.

Experiments:
[1] = biological target: Voltage-gated inwardly rectifying potassium channel KCNH2 (Homo sapiens, UniProt Q12809); experiment: Inhibition of human ERG; type: toxicity
[2] = Induction of progranulin secretion in mouse BV-2 cells; type: functional, cell-based
[3] = Bioavailability in mouse at 10 mg/kg, po or 1 mg/kg, iv; type: ADME, organism-based; settings: in vivo
[4] = Half life in mouse at 10 mg/kg, po; type: ADME, organism-based; settings: in vivo
[5] = Metabolic stability in human hepatocytes assessed as intrinsic clearance; type: ADME, cell-based, Hepatocyte
[6] = Clearance in mouse at 10 mg/kg, po or 1 mg/kg, iv; type: ADME, organism-based; settings: in vivo
[7] = Metabolic stability in mouse hepatocytes assessed as intrinsic clearance; type: ADME, cell-based, Hepatocyte
[8] = Metabolic stability in human hepatocytes assessed as half life measured upto 120 mins; type: ADME, cell-based, Hepatocyte
[9] = Metabolic stability in mouse hepatocytes assessed as half life measured upto 120 mins; type: ADME, cell-based, Hepatocyte
[10] = Protein binding in mouse brain assessed as unbound fraction; type: ADME, tissue-based
[11] = Volume of distribution at steady state in mouse at 10 mg/kg, po or 1 mg/kg, iv; type: ADME, organism-based; settings: in vivo
[12] = Half life in mouse at 1 mg/kg, iv; type: ADME, organism-based; settings: in vivo
[13] = Apparent permeability across apical to basolateral side in MDCK-MDR1 cells; type: ADME, cell-based, Canis lupus familiaris; settings: dog
[14] = Efflux ratio of apparent permeability in MDCK-MDR1 cells; type: ADME, cell-based, Canis lupus familiaris; settings: dog
[15] = Protein binding in human assessed as unbound fraction; type: ADME
[16] = Protein binding in mouse assessed as unbound fraction; type: ADME
[17] = Unbound Cmax in mouse at 10 mg/kg, po or 1 mg/kg, iv; type: ADME, organism-based; settings: in vivo
[18] = Unbound brain to plasma partition coefficient in mouse at 10 mg/kg, po or 1 mg/kg, iv after 8 hrs; type: ADME, organism-based; settings: read-out: K(p,uu,brain)

Voltage-gated inwardly rectifying potassium channel KCNH2, sequence (Q12809 whole entry): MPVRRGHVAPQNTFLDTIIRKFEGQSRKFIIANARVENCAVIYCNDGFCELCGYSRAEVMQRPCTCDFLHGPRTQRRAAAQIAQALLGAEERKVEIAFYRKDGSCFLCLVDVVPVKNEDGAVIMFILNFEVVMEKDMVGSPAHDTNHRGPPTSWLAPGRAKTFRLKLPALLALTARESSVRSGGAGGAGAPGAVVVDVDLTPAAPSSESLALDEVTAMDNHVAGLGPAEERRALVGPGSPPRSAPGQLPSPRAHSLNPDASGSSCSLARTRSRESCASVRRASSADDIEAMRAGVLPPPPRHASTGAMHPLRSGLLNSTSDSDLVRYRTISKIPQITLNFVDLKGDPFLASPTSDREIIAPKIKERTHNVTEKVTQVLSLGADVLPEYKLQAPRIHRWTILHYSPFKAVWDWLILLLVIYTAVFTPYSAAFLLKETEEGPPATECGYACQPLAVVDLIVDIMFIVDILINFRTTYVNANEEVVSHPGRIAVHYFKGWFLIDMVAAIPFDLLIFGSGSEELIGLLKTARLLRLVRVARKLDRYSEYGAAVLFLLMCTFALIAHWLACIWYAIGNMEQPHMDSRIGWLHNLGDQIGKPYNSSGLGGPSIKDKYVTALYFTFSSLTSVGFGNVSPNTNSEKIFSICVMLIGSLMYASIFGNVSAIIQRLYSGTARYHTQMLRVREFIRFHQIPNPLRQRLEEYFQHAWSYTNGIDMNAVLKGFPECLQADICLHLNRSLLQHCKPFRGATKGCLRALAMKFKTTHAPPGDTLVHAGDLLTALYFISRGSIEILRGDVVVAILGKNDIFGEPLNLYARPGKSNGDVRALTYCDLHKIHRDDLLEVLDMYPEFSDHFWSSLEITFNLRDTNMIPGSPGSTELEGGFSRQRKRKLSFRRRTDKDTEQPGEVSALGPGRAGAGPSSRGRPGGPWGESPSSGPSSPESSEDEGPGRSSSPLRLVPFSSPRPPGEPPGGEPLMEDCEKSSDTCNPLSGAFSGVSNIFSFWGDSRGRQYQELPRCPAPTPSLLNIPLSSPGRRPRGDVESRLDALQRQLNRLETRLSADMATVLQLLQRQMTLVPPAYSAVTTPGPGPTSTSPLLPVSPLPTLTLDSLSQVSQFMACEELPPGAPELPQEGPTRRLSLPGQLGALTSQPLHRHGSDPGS

Row | pEC50 [2] | SMILES | pIC50 [1] | further results
1 | 6.30 | Fc1ccc([C@H]2c3ccccc3CCN2C2=NC[C@@]3(CCCNC3)O2)cc1 | – | –
2 | 7.42 | Fc1ccc([C@H]2c3ccccc3CCN2C2=NC[C@@]3(CCNC3)O2)cc1 | 5.32 | bioavailability [3]: 74%; half-life [4]: 11.9 h; CLH [5]: < 14.7 µL/min/mg; CL [6]: 49.8 mL/min/kg; CLH [7]: < 68.2 µL/min/mg; half-life [8]: > 2 h; half-life [9]: > 2 h; fraction unbound [10]: 0.041; Vdss [11]: 57.2 L/kg; half-life [12]: 15.6 h; Papp A→B [13]: 3 ×10⁻⁶ cm/s; efflux ratio [14]: 3.09
3 | 6.96 | Fc1ccc([C@H]2c3ccccc3CCN2C2=NC[C@H](C3CNC3)O2)cc1 | 5.66 | –
4 | 7.24 | Fc1ccc([C@H]2c3ccccc3CCN2C2=NC[C@@H]3CNCC[C@@H]3O2)cc1 | 4.68 | fraction unbound [15]: 0.375; fraction unbound [10]: 0.009; fraction unbound [16]: 0.253; Papp A→B [13]: 1.4 ×10⁻⁶ cm/s; efflux ratio [14]: 9.04
5 | 6.28 | N[C@H]1C[C@@]2(CN=C(N3CCc4ccccc4[C@@H]3c3ccc(F)cc3)O2)C1 | – | –
6 | 7.42 | Fc1ccc([C@H]2c3ccccc3CCN2C2=N[C@@]3(CCCNC3)CO2)cc1 | – | –
7 | 6.69 | NC[C@H]1C[C@]2(CN=C(N3CCc4ccccc4[C@@H]3c3ccc(F)cc3)O2)C1 | – | –
8 | 6.02 | Fc1ccc([C@H]2c3ccccc3CCN2C2=NC[C@@H]3CNC[C@@H]3O2)cc1 | – | –
9 | 7.26 | Fc1ccc([C@H]2c3ccccc3CCN2C2=NC[C@@H]([C@@H]3CCNC3)O2)cc1 | 5.27 | –
10 | 6.00 | NC[C@H]1C[C@@]2(CN=C(N3CCc4ccccc4[C@@H]3c3ccc(F)cc3)O2)C1 | – | –
11 | 6.64 | OCCN1CC[C@H]2OC(N3CCc4ccccc4[C@@H]3c3ccc(F)cc3)=NC[C@H]2C1 | – | –
12 | 6.90 | N[C@H]1CC[C@@]2(CN=C(N3CCc4ccccc4[C@@H]3c3ccc(F)cc3)O2)C1 | – | –
13 | 6.80 | N[C@H]1CC[C@]2(COC(N3CCc4ccccc4[C@@H]3c3ccc(F)cc3)=N2)C1 | – | –
14 | 7.16 | CN1CC[C@]2(CN=C(N3CCc4ccccc4[C@@H]3c3ccc(F)cc3)O2)C1 | 6.29 | –
15 | 6.95 | Fc1ccc([C@H]2c3ccccc3CCN2C2=NC[C@H]3CNC[C@H]3O2)cc1 | 5.29 | –
16 | 6.92 | N[C@@H]1CC[C@@]2(CN=C(N3CCc4ccccc4[C@@H]3c3ccc(F)cc3)O2)C1 | 5.06 | –
17 | 6.61 | Fc1ccc([C@H]2c3ccccc3CCN2C2=NC[C@@H]([C@H]3CCNC3)O2)cc1 | 5.41 | –
18 | 6.63 | CN(C)[C@H]1CC[C@@]2(CN=C(N3CCc4ccccc4[C@@H]3c3ccc(F)cc3)O2)C1 | 5.44 | –
19 | 7.08 | Fc1ccc([C@H]2c3ccccc3CCN2C2=N[C@H](C3(F)CNC3)CO2)cc1 | 5.51 | bioavailability [3]: 99%; half-life [4]: 4.8 h; CLH [5]: < 14.7 µL/min/mg; fCmax [17]: 62 nM; CL [6]: 34.7 mL/min/kg; CLH [7]: < 68.2 µL/min/mg; fraction unbound [15]: 0.055; half-life [8]: > 2 h; half-life [9]: > 2 h; Kp uu at 8 h [18]: 2.91; fraction unbound [10]: 0.009; Vdss [11]: 15.2 L/kg; fraction unbound [16]: 0.031; half-life [12]: 7.4 h; Papp A→B [13]: 0.53 ×10⁻⁶ cm/s; efflux ratio [14]: 1.11
20 | 6.96 | N[C@H]1CC[C@]2(CN=C(N3CCc4ccccc4[C@@H]3c3ccc(F)cc3)O2)C1 | – | –
21 | 6.86 | CN(C)[C@H]1CC[C@]2(CN=C(N3CCc4ccccc4[C@@H]3c3ccc(F)cc3)O2)C1 | 5.11 | –
22 | 7.01 | Fc1ccc([C@H]2c3ccccc3CCN2C2=NC[C@@H](C3CNC3)O2)cc1 | 5.21 | –
23 | 6.37 | Fc1ccc([C@H]2c3ccccc3CCN2C2=NC[C@H]3NCC[C@H]3O2)cc1 | – | –
24 | 6.63 | N[C@@H]1CC[C@]2(CN=C(N3CCc4ccccc4[C@@H]3c3ccc(F)cc3)O2)C1 | – | –
25 | 5.81 | Fc1ccc([C@H]2c3ccccc3CCN2C2=NC[C@H]3CNCC[C@@H]3O2)cc1 | – | –
26 | 6.92 | Fc1ccc([C@H]2c3ccccc3CCN2C2=N[C@@H](C3(F)CNC3)CO2)cc1 | 5.00 | –

Row | pEC50 [2] | SMILES | pIC50 [1] | further results
27 | 6.17 | Fc1ccc([C@H]2c3ccccc3CCN2C2=N[C@@H]3CNC[C@@H]3O2)cc1 | – | –
28 | 6.74 | OCCCN1CC[C@@]2(CN=C(N3CCc4ccccc4[C@@H]3c3ccc(F)cc3)O2)C1 | 5.32 | –
29 | 5.15 | CN1CCC2(CC1)COC(N1CCc3ccccc3[C@@H]1c1ccc(F)cc1)=N2 | – | –
30 | 6.19 | N[C@H]1C[C@@]2(COC(N3CCc4ccccc4[C@@H]3c3ccc(F)cc3)=N2)C1 | – | –
31 | 6.50 | OCCN1CC[C@@]2(CN=C(N3CCc4ccccc4[C@@H]3c3ccc(F)cc3)O2)C1 | 5.36 | bioavailability [3]: 6.1%; half-life [4]: 3.3 h; CLH [5]: < 14.7 µL/min/mg; fCmax [17]: 8 nM; CL [6]: 129 mL/min/kg; CLH [7]: 22.25 µL/min/mg; fraction unbound [15]: 0.151; half-life [8]: > 2 h; half-life [9]: 0.517 h; Kp uu at 8 h [18]: 3.84; fraction unbound [10]: 0.042; Vdss [11]: 18.5 L/kg; fraction unbound [16]: 0.091; half-life [12]: 2.1 h; Papp A→B [13]: 2.2 ×10⁻⁶ cm/s; efflux ratio [14]: 1.52
32 | 5.45 | CN(C)[C@H]1C[C@]2(CN=C(N3CCc4ccccc4[C@@H]3c3ccc(F)cc3)O2)C1 | – | –
33 | 6.75 | CN1CC[C@@]2(CN=C(N3CCc4ccccc4[C@@H]3c3ccc(F)cc3)O2)C1 | 5.77 | –
34 | 6.69 | N[C@H]1CC[C@@]2(COC(N3CCc4ccccc4[C@@H]3c3ccc(F)cc3)=N2)C1 | – | –
35 | 6.88 | Fc1ccc([C@H]2c3ccccc3CCN2C2=NC[C@@H](C3(F)CNC3)O2)cc1 | 5.44 | bioavailability [3]: 38%; half-life [4]: 2.6 h; CLH [5]: < 14.7 µL/min/mg; fCmax [17]: 11 nM; CL [6]: 89.3 mL/min/kg; CLH [7]: < 68.2 µL/min/mg; fraction unbound [15]: 0.068; half-life [8]: > 2 h; half-life [9]: > 2 h; Kp uu at 8 h [18]: 8.33; fraction unbound [10]: 0.01; Vdss [11]: 12.2 L/kg; fraction unbound [16]: 0.021; half-life [12]: 2.2 h; Papp A→B [13]: 0.87 ×10⁻⁶ cm/s; efflux ratio [14]: 1.07
36 | 6.29 | Fc1ccc([C@H]2c3ccccc3CCN2C2=N[C@H]3CNC[C@H]3O2)cc1 | – | –
37 | 7.46 | Fc1ccc([C@H]2c3ccccc3CCN2C2=NC[C@@H]3CNCC[C@H]3O2)cc1 | 5.51 | –
38 | 6.68 | Fc1ccc([C@H]2c3ccccc3CCN2C2=NC[C@H]([C@@H]3CCNC3)O2)cc1 | 5.17 | –
39 | 6.47 | Fc1ccc([C@H]2c3ccccc3CCN2C2=NC[C@H]3CNCC[C@H]3O2)cc1 | – | –
40 | 7.68 | Fc1ccc([C@H]2c3ccccc3CCN2C2=NC[C@]3(CCNC3)O2)cc1 | – | –
41 | 7.07 | Fc1ccc([C@H]2c3ccccc3CCN2C2=NC[C@H]([C@H]3CCNC3)O2)cc1 | 5.64 | –
42 | 6.56 | Fc1ccc([C@H]2c3ccccc3CCN2C2=N[C@H]3CNC[C@H]3CO2)cc1 | 5.48 | –
43 | 7.19 | Fc1ccc([C@H]2c3ccccc3CCN2C2=NC[C@]3(CCCNC3)O2)cc1 | – | –
44 | 7.23 | Fc1ccc([C@H]2c3ccccc3CCN2C2=NCC3(CCNCC3)O2)cc1 | – | –
45 | 7.07 | Fc1ccc([C@H]2c3ccccc3CCN2C2=N[C@]3(CCCNC3)CO2)cc1 | – | –
46 | 6.10 | CN1CCCC2(COC(N3CCc4ccccc4[C@@H]3c3ccc(F)cc3)=N2)C1 (some centres undefined) | – | –
47 | 6.80 | Fc1ccc([C@H]2c3ccccc3CCN2C2=NC3(CCNCC3)CO2)cc1 | – | –
48 | 6.72 | Fc1ccc([C@H]2c3ccccc3CCN2C2=NC[C@H](C3(F)CNC3)O2)cc1 | 4.96 | –
49 | 7.43 | OCCN1CC[C@@H]2OC(N3CCc4ccccc4[C@@H]3c3ccc(F)cc3)=NC[C@@H]2C1 | – | –
50 | 6.18 | Fc1ccc([C@H]2c3ccccc3CCN2C2=NC[C@@H]3NCC[C@H]3O2)cc1 | – | –
51 | 6.68 | CN(C)[C@H]1C[C@@]2(CN=C(N3CCc4ccccc4[C@@H]3c3ccc(F)cc3)O2)C1 | 5.15 | –
52 | 6.34 | Fc1ccc([C@H]2c3ccccc3CCN2C2=NC[C@@H]3NCC[C@@H]3O2)cc1 | – | –

Row | SMILES | pEC50 [2] | pIC50 [1] | further results
53 | Fc1ccc([C@H]2c3ccccc3CCN2C2=NC[C@H](C3CN4CCC3CC4)O2)cc1 (some centres undefined) | 6.41 | 6.17 | –
54 | Fc1ccc([C@H]2c3ccccc3CCN2C2=NC[C@H](C3CN4CCC3(F)CC4)O2)cc1 (some centres undefined) | < 5.00 | – | –
55 | Fc1ccc([C@H]2c3ccccc3CCN2C2=N[C@H](C3CN4CCC3CC4)CO2)cc1 (some centres undefined) | 6.90 | – | –
56 | Fc1ccc([C@H]2c3ccccc3CCN2C2=NC[C@@H](C3CN4CCC3(F)CC4)O2)cc1 (some centres undefined) | 6.42 | – | –
57 | Fc1ccc([C@H]2c3ccccc3CCN2C2=N[C@@H](C3CN4CCC3CC4)CO2)cc1 (some centres undefined) | 6.64 | – | –
58 | Fc1ccc([C@H]2c3ccccc3CCN2C2=NC[C@@H](C3CN4CCC3CC4)O2)cc1 (some centres undefined) | 6.66 | 6.16 | bioavailability [3]: 25%; half-life [4]: 11.4 h; CLH [5]: 47.79 µL/min/mg; fCmax [17]: 6 nM; CL [6]: 156 mL/min/kg; CLH [7]: 147.03 µL/min/mg; fraction unbound [15]: 0.141; half-life [8]: 0.242 h; half-life [9]: 0.0785 h; Kp uu at 8 h [18]: 2.7; fraction unbound [10]: 0.02; Vdss [11]: 38.8 L/kg; fraction unbound [16]: 0.056; half-life [12]: 4.17 h; Papp A→B [13]: 3.07 ×10⁻⁶ cm/s; efflux ratio [14]: 2.12
